Assay results as given in publication PMC6166404 (Journal of medicinal chemistry, 2018).

Columns and labels:
[1] = tested on: Mtb strain SRMV2.6 (MtbIMPDH2/Y487C); type: cell-based, Mycobacterium tuberculosis
MtbIMPDH2ΔCBS = MtbIMPDH2ΔCBS (Mycobacterium tuberculosis, UniProt P9WKI7, R252G); type: biochemical; settings: for Ki: read-out: Ki,app MtbIMPDH2
MtbIMPDH2/Y487C = MtbIMPDH2/Y487C (Mycobacterium tuberculosis, UniProt P9WKI7, Y487C); type: biochemical

## COc1ccc(OC(C)C(=O)Nc2ccc3oc(-c4ccncc4)nc3c2)cc1 (stereo not drawn) [Compound 1, reference compound]
[1]
  MIC SRMV2.6: >100 µM
  susceptibility of strain SRMV2.6: resistant

## COc1ccc(-c2nc3cc(NC(=O)[C@H](C)Oc4cccc(Cl)c4Cl)ccc3o2)cn1 [Compound 8c, (S)-2-(2,3-dichlorophenoxy)-N-(2-(6-methoxypyridin-3-yl)benzo[d]oxazol-5-yl)propanamide]
MtbIMPDH2ΔCBS
  fold increase in MtbIMPDH2ΔCBS inhibitory activity compared to 2: 5 fold

## COc1ccc(-c2nc3cc(NC(=O)[C@H](C)Oc4cccc(Cl)c4Cl)ccc3o2)cc1 [Compound 8d, (S)-2-(2,3-Dichlorophenoxy)-N-(2-(4-methoxyphenyl)benzo[d]oxazol-5-yl)propanamide]
MtbIMPDH2ΔCBS
  fold increase in MtbIMPDH2ΔCBS inhibitory activity compared to 2: 7 fold

## C[C@H](Oc1cccc(Cl)c1Cl)C(=O)Nc1ccc2oc(-c3ccc(OC(F)(F)F)cc3)nc2c1 [Compound 8e, (S)-2-(2,3-Dichlorophenoxy)-N-(2-(4-(trifluoromethoxy)phenyl)benzo[d]oxazol-5-yl)propanamide]
MtbIMPDH2ΔCBS
  fold increase in MtbIMPDH2ΔCBS inhibitory activity compared to 2: 7 fold

## C[C@H](Oc1cccc(Cl)c1Cl)C(=O)Nc1ccc2oc(-c3ccc(C#N)cc3)nc2c1 [Compound 8f, (S)-N-(2-(4-Cyanophenyl)benzo[d]oxazol-5-yl)-2-(2,3-dichlorophenoxy)propanamide]
MtbIMPDH2ΔCBS
  fold increase in MtbIMPDH2ΔCBS inhibitory activity compared to 2: 7 fold

## C[C@H](Oc1cccc(Cl)c1Cl)C(=O)Nc1ccc2oc(-c3ccc(O)cc3)nc2c1 [Compound 8i, (S)-2-(2,3-Dichlorophenoxy)-N-(2-(4-hydroxyphenyl)benzo[d]oxazol-5-yl)propanamide]
MtbIMPDH2ΔCBS
  fold increase in MtbIMPDH2ΔCBS inhibitory activity compared to 2: 2 fold

## COc1ccc(Cc2nc3cc(NC(=O)[C@H](C)Oc4cccc(Cl)c4Cl)ccc3o2)cc1 [Compound 15, (S)-2-(2,3-dichlorophenoxy)-N-(2-(4-methoxybenzyl)benzo[d]oxazol-5-yl)prop-anamide]
MtbIMPDH2ΔCBS
  factor of reduced activity compared to 8d: 6

## C[C@H](Nc1cccc(F)c1F)C(=O)Nc1ccc2oc(-c3ccc(C#N)cc3)nc2c1 [Compound 17b, (S)-N-(2-(4-Cyanophenyl)benzo[d]oxazol-5-yl)-2-((2,3-difluorophenyl)amino)propanamide]
MtbIMPDH2/Y487C
  Ratio Ki,app (Y487C) /Ki,app (WT): 60
[1]
  MIC SRMV2.6: >100 µM
  susceptibility of strain SRMV2.6: resistant

## CCOC(=O)COc1ccc(-c2nc3cc(NC(=O)[C@H](C)Oc4cccc(Cl)c4Cl)ccc3o2)cc1 [Compound 18a, Ethyl (S)-2-(4-(5-(2-(2,3-dichlorophenoxy)propanamido)benzo[d]oxazol-2-yl)phenoxy)acetate]
[1]
  susceptibility of strain SRMV2.6: remained sensitive

## CCOC(=O)COc1cccc(-c2nc3cc(NC(=O)[C@H](C)Oc4cccc(Cl)c4Cl)ccc3o2)c1 [Compound 18b, Ethyl(S)-2-(3-(5-(2-(2,3-dichlorophenoxy)propanamido)benzo[d]oxazol-2-yl)phenoxy)acetate]
MtbIMPDH2ΔCBS
  fold loss in activity on translocating the alkoxy from para to meta position: 4 fold

## C[C@H](Oc1cccc(Cl)c1Cl)C(=O)Nc1ccc2oc(-c3cccc(OCC(=O)O)c3)nc2c1 [Compound 19b, (S)-2-(3-(5-(2-(2,3-Dichlorophenoxy)propanamido)benzo[d]oxazol-2-yl)phenoxy)acetic acid]
MtbIMPDH2ΔCBS
  fold loss in activity on translocating the alkoxy from para to meta position: 4 fold

## C[C@H](Oc1cccc(Cl)c1Cl)C(=O)Nc1ccc2oc(-c3ccc(C(=O)O)cc3)nc2c1 [Compound 22, (S)-4-(5-(2-(2,3-Dichlorophenoxy)propanamido)benzo[d]oxazol-2-yl)benzoic acid]
[1]
  susceptibility of strain SRMV2.6: remained sensitive

## C[C@H](Oc1cccc(Cl)c1Cl)C(=O)Nc1ccc2oc(-c3ccc(C(=O)NN)cc3)nc2c1 [Compound 23, (S)-2-(2,3-Dichlorophenoxy)-N-(2-(4-(hydrazinecarbonyl)phenyl)benzo[d]oxazol-5-yl)propanamide]
MtbIMPDH2ΔCBS
  fold increase in activity on replacing the carboxylate: 2 to 7 fold

## C[C@H](Oc1cccc(Cl)c1Cl)C(=O)Nc1ccc2oc(-c3ccc(-c4n[nH]c(=O)o4)cc3)nc2c1 [Compound 24, (S)-2-(2,3-Dichlorophenoxy)-N-(2-(4-(5-oxo-4,5-dihydro-1,3,4-oxadiazol-2-yl)phenyl)benzo[d]oxazol-5-yl)propanamide]
MtbIMPDH2ΔCBS
  fold increase in activity on replacing the carboxylate: 2 to 7 fold

## C[C@H](Oc1cccc(Cl)c1Cl)C(=O)Nc1ccc2oc(-c3ccc(/C(N)=N\O)cc3)nc2c1 [Compound 25, (S,Z)-2-(2,3-Dichlorophenoxy)-N-(2-(4-(N’-hydroxycarbamimidoyl)phenyl)benzo[d]oxazol-5-yl)propanamide]
MtbIMPDH2ΔCBS
  fold increase in activity on replacing the carboxylate: 2 to 7 fold

## C[C@H](Oc1cccc(Cl)c1Cl)C(=O)Nc1ccc2oc(-c3ccc(-c4noc(=O)[nH]4)cc3)nc2c1 [Compound 26, (S)-2-(2,3-Dichlorophenoxy)-N-(2-(4-(5-oxo-4,5-dihydro-1,2,4-oxadiazol-3-yl)phenyl)benzo-[d]oxazol-5-yl)propanamide]
MtbIMPDH2ΔCBS
  fold increase in activity on replacing the carboxylate: 2 to 7 fold

## C[C@H](Oc1cccc(Cl)c1Cl)C(=O)Nc1ccc2oc(-c3ccc(C(N)=O)cc3)nc2c1 [Compound 28, (S)-4-(5-(2-(2,3-Dichlorophenoxy)propanamido)benzo[d]oxazol-2-yl)benzamide]
MtbIMPDH2ΔCBS
  fold increase in activity on replacing the carboxylate: 2 to 7 fold

## (S)-2-(2,3-Dichlorophenoxy)-N-(2-(2-methoxypyridin-4-yl)benzo[d]oxazol-5-yl)propanamide [Compound 8b]
MtbIMPDH2ΔCBS
  fold increase in MtbIMPDH2ΔCBS inhibitory activity compared to 2: 5 fold
  Ki: 12 ± 0.1 nM

## (S)-2-(2,3-Dichlorophenoxy)-N-(2-(2-oxo-1,2-dihydropyridin-4-yl)benzo[d]oxazol-5-yl)propanamide [Compound 30]
MtbIMPDH2ΔCBS
  fold reduction of MtbIMPDH2ΔCBS inhibitory activity compared to 2: 3 fold
  Ki: 220 ± 6 nM
